Measurements from patent US6818655B2, “Urotensin-II receptor antagonists” (SmithKline Beecham Corporation, priority 2001, dated 2004).

Target: T1, human and rat GPR-14 (UniProt Q9UKP6)
T1 sequence (Q9UKP6 1-389): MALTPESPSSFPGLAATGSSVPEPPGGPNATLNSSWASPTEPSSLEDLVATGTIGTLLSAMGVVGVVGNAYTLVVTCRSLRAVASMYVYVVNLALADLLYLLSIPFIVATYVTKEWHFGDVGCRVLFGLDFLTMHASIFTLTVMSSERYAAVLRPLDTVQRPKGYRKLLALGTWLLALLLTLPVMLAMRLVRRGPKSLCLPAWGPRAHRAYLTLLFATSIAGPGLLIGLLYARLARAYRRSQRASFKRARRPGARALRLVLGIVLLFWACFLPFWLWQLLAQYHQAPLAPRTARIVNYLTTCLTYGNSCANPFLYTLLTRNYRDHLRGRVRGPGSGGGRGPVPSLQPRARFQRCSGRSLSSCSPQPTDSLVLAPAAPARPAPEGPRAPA
Experiment: Radioligand binding, [125I] h-U-II, HEK-293 cell membranes
Settings: radioligand binding assay; HEK-293 cell membranes with stable cloned GPR-14; 200 pM [125I] h-U-II
Description: HEK-293 cell membranes containing stable cloned human and rat GPR-14 (20 ug/assay) were incubated with 200 pM [125I] h-U-II (200 Ci/mmol^−1 in the presence of increasing concentrations of test compounds in DMSO (0.1 nM to 10 uM), in a final incubation volume of 200 ul (20 mM Tris-HCl, 5 mM MgCl2). Incubation was done for 30 minutes at room temperature followed by filtration GF/B filters with Brandel cell harvester. ^125I labeled U-II binding was quantitated by gamma counting. Nonspecific binding was defined by ^125I U-II binding in the presence of 100 nM of unlabeled human U-II. Analysis of the data was performed by nonlinear least square fitting.

COc1cc(NCCCNC(=O)C(c2ccccc2)c2ccccc2)nc2ccccc12 [Example 29, N-[3-(4-Methoxy-quinolin-2-ylamino)-propyl]-2,2-diphenyl-acetamide]
Ki: 90 nM
